ChEMBL document CHEMBL3301458, “MMV Malaria Box hERG screening”
The source made the active and inactive calls. No rule for the calls is given here.

Legend:
[1] = biological target: T1, hERG (Kv11.1, KCNH2) (Homo sapiens, UniProt Q12809); assay: in vitro
Description: MMV: Malaria Box compounds were tested for inhibition of the human ether a go-go related gene (hERG), Kv11.1 channel, using IonWorks 384-well patch clamp electrophysiology at 1.1uM (3 independent assay plates up to 12 cells per concentration).

[2] = biological target: T1, hERG (Kv11.1, KCNH2); assay: in vitro; remark: listed apart in the source
Description: MMV: Malaria Box compounds were tested for inhibition of the human ether a go-go related gene (hERG), Kv11.1 channel, using IonWorks 384-well patch clamp electrophysiology at 11.1uM (3 independent assay plates up to 12 cells per concentration).

T1 sequence (Q12809 whole entry): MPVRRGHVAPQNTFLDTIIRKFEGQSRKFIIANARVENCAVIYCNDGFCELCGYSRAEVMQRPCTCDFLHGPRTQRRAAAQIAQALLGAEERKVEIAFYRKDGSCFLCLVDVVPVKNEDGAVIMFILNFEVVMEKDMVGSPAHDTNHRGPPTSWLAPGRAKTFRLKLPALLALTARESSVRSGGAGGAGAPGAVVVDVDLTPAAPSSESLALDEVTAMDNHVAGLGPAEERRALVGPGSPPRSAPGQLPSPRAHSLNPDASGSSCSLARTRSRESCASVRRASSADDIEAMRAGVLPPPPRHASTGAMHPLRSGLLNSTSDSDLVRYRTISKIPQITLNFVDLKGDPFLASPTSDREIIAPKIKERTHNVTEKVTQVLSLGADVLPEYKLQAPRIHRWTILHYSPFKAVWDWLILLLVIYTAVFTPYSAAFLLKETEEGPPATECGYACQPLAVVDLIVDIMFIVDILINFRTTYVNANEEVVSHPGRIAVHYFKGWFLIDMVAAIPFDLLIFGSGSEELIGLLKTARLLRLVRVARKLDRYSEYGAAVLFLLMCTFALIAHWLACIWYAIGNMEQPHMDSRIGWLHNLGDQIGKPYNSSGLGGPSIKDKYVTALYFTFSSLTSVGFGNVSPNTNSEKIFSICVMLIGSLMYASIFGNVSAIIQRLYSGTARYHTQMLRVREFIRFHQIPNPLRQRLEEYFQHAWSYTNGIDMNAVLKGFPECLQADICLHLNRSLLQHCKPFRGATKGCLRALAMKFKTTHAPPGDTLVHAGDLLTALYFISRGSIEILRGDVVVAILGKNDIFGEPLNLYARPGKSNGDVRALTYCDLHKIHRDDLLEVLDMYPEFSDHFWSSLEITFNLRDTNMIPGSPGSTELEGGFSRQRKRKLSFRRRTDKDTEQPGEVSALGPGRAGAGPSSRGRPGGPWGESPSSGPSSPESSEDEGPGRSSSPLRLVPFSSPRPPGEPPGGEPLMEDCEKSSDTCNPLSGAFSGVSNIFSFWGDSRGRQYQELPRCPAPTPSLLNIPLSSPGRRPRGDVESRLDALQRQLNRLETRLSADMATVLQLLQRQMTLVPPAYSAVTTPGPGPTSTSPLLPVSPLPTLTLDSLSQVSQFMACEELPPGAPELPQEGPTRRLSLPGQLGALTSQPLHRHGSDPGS

Row | SMILES | inhibition at 1.1 µM [1] [%] | inhibition at 11.1 µM [2]
1 | c1ccc(/C2=N/c3ccccc3/N=C(/c3ccccc3)c3ccccc32)cc1 | 7 | 3% (inactive)
2 | Cc1cc(C)cc(Nc2cc(C)nc3nc(C(F)(F)F)nn23)c1 | 20 | 40%
3 | CCOC(=O)c1cnc2ccc(CC)cc2c1O | 1 | 12% (inactive)
4 | O=C(CCc1ccccc1)c1ccccc1OCC(O)CN1CCCCC1 (stereo unspecified) | 1 | 17% (inactive)
5 | Cc1cc(Nc2ccc3ccccc3c2)n2ncnc2n1 | 9 | 25% (inactive)
6 | O=C(O)C1Cc2c([nH]c3ccccc23)C(c2ccc(Cl)cc2Cl)N1 (stereo unspecified) | -5 | 34%
7 | COc1ccc2nc(C)cc(Nc3ccc(Cl)cc3)c2c1 | 67 | 111%
8 | COc1ccc2nc(C)cc(Nc3cccc(O)c3)c2c1 | 32 | 83% (active)
9 | COC(=O)c1ccc(C2C3=C(O)CC(c4ccc(F)cc4)CC3=Nc3ccccc3N2C(=O)c2ccccc2)cc1 (stereo unspecified) | 98 | 105%
10 | CCOc1cc2c(cc1OCC)C(c1cc(OC)c(O)cc1Cl)NCC2 (stereo unspecified) | 10 | 30%
11 | CCOc1ccc(CN2CCN(CC(O)COc3ccc(OCC(O)CN4CCN(Cc5ccc(OCC)cc5)CC4)cc3)CC2)cc1 (stereo unspecified) | 70 | 83%
12 | Brc1ccc(Nc2nc3ccccc3nc2Nc2ccc(Br)cc2)cc1 | 2 | 2% (inactive)
13 | OC(CNC1CCCCC1)Cn1c2ccccc2c2ccccc21 (stereo unspecified) | 14 | 23% (inactive)
14 | Cc1ccc(CSCc2ccc(C(=O)NC3CC3)o2)cc1 | 2 | 26%
15 | Cc1cc(Nc2ccc(OCc3ccccc3)cc2)nc2cc(O)ccc12 | -2 | 108% (active)
16 | CN1CCN(c2c3c(c(C#N)c4nc5ccccc5n24)CCC3)CC1 | 7 | 45%
17 | CCOc1ccc2nc(C)cc(Nc3ccc(N(C)C)cc3)c2c1 | 4 | 3% (inactive)
18 | COc1ccc(Nc2cc(C)nc(NCc3ccccc3)n2)cc1 | > 5 | 67% (active)
19 | COc1cc(-c2nc(-c3ccc(Sc4ccccc4)cc3)c(-c3ccccc3)[nH]2)cc(OC)c1O | 15 | 13% (inactive)
20 | COc1ccc2c(c1)OC(O)(C(F)(F)C(F)(F)F)CC2=O (stereo unspecified) | 4 | 25%
21 | Cc1ccc(-c2cc3nc4c(c(O)n3n2)CCCC4)cc1 | -4 | 11% (inactive)
22 | O=C1c2ccc3c4c(ccc(c24)C(=O)N1CCCCO)C(=O)N(CCCCO)C3=O | 3 | 37%
23 | CC(=O)NCCc1nc2ccccc2n1Cc1ccc(C(C)C)cc1 | 6 | 26%
24 | O=C(Nc1ccc(-c2nc3cc(NC(=O)c4ccc(Cl)cc4)ccc3[nH]2)cc1)c1ccc(Cl)cc1 | -9 | 28%
25 | COc1nc(Nc2ccc(C(C)C)cc2)nc(OC)n1 | -2 | 17% (inactive)

Row | SMILES | inhibition at 1.1 µM [1] [%] | inhibition at 11.1 µM [2]
26 | Cc1ccccc1OCCSc1nc2ccc(NC(=O)c3cccs3)cc2s1 | 12 | 24% (inactive)
27 | CC1CCN(Cc2c(O)ccc3cc(-c4nc5ccccc5s4)c(=O)oc23)CC1 | -3 | 10% (inactive)
28 | c1ccc2cc3c(Nc4ccc(N5CCOCC5)cc4)ccnc3cc2c1 | 38 | 87% (active)
29 | COc1ccc(C(=O)C(CCC(CNC(C)(C)C)C(=O)c2ccc(OC)cc2)CNC(C)(C)C)cc1 (stereo unspecified) | 9 | 33%
30 | CC(C)CCNCC(O)Cn1c2ccccc2c2ccccc21 (stereo unspecified) | 2 | 61% (active)
31 | Cc1c(C)n(Cc2ccc(F)cc2)c2ccc(C(=O)NCc3ccco3)cc12 | -2 | 5% (inactive)
32 | COc1ccc(C2C(C(=O)Nc3cccc(OC)c3)c3ccccc3C(=O)N2C2CCCCC2)cc1 (stereo unspecified) | 4 | 70% (active)
33 | CCN(CC)c1ccc(NC(=O)c2cccs2)cc1 | -1 | 1% (inactive)
34 | CCOC(=O)c1cnc2ccc(Cl)cc2c1NCCCN(C)C | 21 | 85% (active)
35 | CCOc1ccccc1NC(=O)CN1CCN(C(=O)c2ccco2)CC1 | 13 | 35%
36 | O=C(Nc1ccc(C23CC4CC(CC(c5ccccc5)(C4)C2)C3)cc1)c1cccs1 | 4 | 3% (inactive)
37 | CN1C=C(c2ccc3ccccc3n2)C(c2c[nH]c3ccccc23)c2ccccc21 (stereo unspecified) | 8 | 89% (active)
38 | Cc1ccccc1OCCSc1nc2ccc(NC(=O)c3ccccc3)cc2s1 | -9 | 2% (inactive)
39 | Cc1ccc(Nc2nc(N)c3ccccc3n2)cc1Cl | 5 | 85% (active)
40 | Cc1ccc(Cn2c(N3CCC(C(=O)NCc4cccs4)CC3)nc3ccccc32)cc1 | 105 | 103%
41 | O=c1nc(C=Cc2ccc(Cl)cc2)oc2ccccc12 | -5 | 10% (inactive)
42 | O=C(NCc1ccco1)C1CCN(S(=O)(=O)c2ccc(Br)cc2)CC1 | 21 | 34%
43 | COc1ccc(-c2nc3cc(Cc4ccc5[nH]c(-c6ccc(OC)cc6)nc5c4)ccc3[nH]2)cc1 | -7 | -1% (inactive)
44 | Cc1ccc2c(C)nc(Nc3nc(C)cc(-c4ccccc4)n3)nc2c1 | -1 | 4% (inactive)
45 | CCOc1ccc(Nc2ccnc3cc(Cl)ccc23)cc1 | 5 | 26%
46 | Cc1cc(Nc2ccc(Cl)cc2)n2nc(C(F)(F)F)nc2n1 | 19 | 59% (active)
47 | COc1ccc(OC)c(C2C3=C(CC(C)(C)CC3=O)N(c3ccc(Cl)c(Cl)c3)C3=C2C(=O)CC(C)(C)C3)c1 | 21 | 27%
48 | Cc1cccc(N2C(=O)C3C(C2=O)C2(c4ccccc4)C(=O)C3(c3ccccc3)C(c3ccc4c(c3)OCO4)=C2c2ccc3c(c2)OCO3)c1 (stereo unspecified) | -14 | 2% (inactive)
49 | COc1ccc(C(C)=O)cc1N1C(=O)C2C(C1=O)C1(c3ccccc3)C(=O)C2(c2ccccc2)C(c2ccc(C)cc2)=C1c1ccc(C)cc1 (stereo unspecified) | -5 | -1% (inactive)
50 | COc1ccc(CCNC(=O)c2cc(S(=O)(=O)N3CC(C)CC(C)C3)ccc2Sc2ccc(F)cc2)cc1OC (stereo unspecified) | 10 | 5% (inactive)

Row | SMILES | inhibition at 1.1 µM [1] [%] | inhibition at 11.1 µM [2]
51 | Cc1ccc(F)cc1NC(=O)c1cc(Cl)ccc1Nc1ccccc1 | 5 | 12% (inactive)
52 | Oc1c2c(nc3cc(-c4ccccc4)nn13)CCCC2 | 2 | -2% (inactive)
53 | CCCCc1c(C)nc2c(OC)cccc2c1O | -9 | 4% (inactive)
54 | CCCCCCOC(=O)C1=C(C)NC(=O)NC1c1ccccc1F (stereo unspecified) | -2 | 1% (inactive)
55 | OC1=C2C(=Nc3ccccc3SC2c2ccc(Br)cc2)c2ccccc21 (stereo unspecified) | 3 | 10% (inactive)
56 | Clc1ccc2c(N3CCCC3)ccnc2c1 | 38 | 83% (active)
57 | COc1cc2c3cc1Oc1c(OC)c(OC)cc4c1C(Cc1ccc(O)c(c1)Oc1ccc(cc1)CC3N(C)CC2)N(C)CC4 (stereo unspecified) | 14 | 69% (active)
58 | Cc1ccc(N2C3c4ccccc4N(S(=O)(=O)c4ccc(C)cc4)C2c2ccccc2N3S(=O)(=O)c2ccc(C)cc2)cc1 | 18 | 18% (inactive)
59 | Cc1ccc(C)c(-c2csc(Nc3ccc(C)c(C)c3)n2)c1 | 57 | 100%
60 | COc1cc(OC)cc(N2C(=O)N(Cc3ccc(C(C)(C)C)cc3)c3ccccc3S2(=O)=O)c1 | 10 | 16% (inactive)
61 | CCOc1ccc(CCNC(=O)c2cccs2)cc1OCC | 9 | 13% (inactive)
62 | CCCc1c(CC)c(=N)c2ccccc2n1C | 0 | 26%
63 | CCCCOc1ccc(C(=O)Nc2cc(C)on2)cc1 | -2 | 2% (inactive)
64 | COc1ccccc1N1C(=N)SC(=Cc2ccc(OCc3ccccc3F)cc2)C1=O | 18 | 24% (inactive)
65 | CCc1ccc(Nc2cc(C)nc3nc(C)nn23)cc1 | -2 | 42%
66 | CCOC(=O)c1cnc2c(C)cc(C)cc2c1Nc1ccc(OC)c(OC)c1 | 26 | 18% (inactive)
67 | CCN(CC)S(=O)(=O)c1ccc(-c2csc(Nc3ccc(C)c(C)c3)n2)cc1 | -7 | -3% (inactive)
68 | CCCn1c(=N)c(C(=O)NC2CCCCC2)cc2c(=O)n3cccc(C)c3nc21 | 63 | 105%
69 | CCN1CCN(c2c(C(=O)c3ccccc3)cnc3cc(OC)c(OC)cc23)CC1 | 36 | 40%
70 | C=CCc1c(C)nc2ccccc2c1O | 11 | 11% (inactive)
71 | CC(C)(C)c1ccc(C2CC3=Nc4ccccc4N(C(=O)c4ccccc4Cl)C(c4ccc(F)cc4)C3=C(O)C2)cc1 (stereo unspecified) | 30 | 88% (active)
72 | CCCCc1c(CCC)c(=N)c2ccccc2n1C | 29 | 74% (active)
73 | CCCCN(CCCC)S(=O)(=O)c1ccc(NC(=O)c2ccco2)cc1 | 13 | 30%
